From ChEMBL document CHEMBL3991601, “The target landscape of clinical kinase drugs” (Science, 2017)
Calls of active or inactive are those of the source. Cut-off read from the data, not from the text of the source, for most assays here: actives have a measured Kd and inactives only a lower limit.

How the values were obtained:
[1] = biological target: T1, AarF domain-containing protein kinase 1 (Homo sapiens, UniProt Q86TW2)
T1 sequence (Q86TW2 whole entry): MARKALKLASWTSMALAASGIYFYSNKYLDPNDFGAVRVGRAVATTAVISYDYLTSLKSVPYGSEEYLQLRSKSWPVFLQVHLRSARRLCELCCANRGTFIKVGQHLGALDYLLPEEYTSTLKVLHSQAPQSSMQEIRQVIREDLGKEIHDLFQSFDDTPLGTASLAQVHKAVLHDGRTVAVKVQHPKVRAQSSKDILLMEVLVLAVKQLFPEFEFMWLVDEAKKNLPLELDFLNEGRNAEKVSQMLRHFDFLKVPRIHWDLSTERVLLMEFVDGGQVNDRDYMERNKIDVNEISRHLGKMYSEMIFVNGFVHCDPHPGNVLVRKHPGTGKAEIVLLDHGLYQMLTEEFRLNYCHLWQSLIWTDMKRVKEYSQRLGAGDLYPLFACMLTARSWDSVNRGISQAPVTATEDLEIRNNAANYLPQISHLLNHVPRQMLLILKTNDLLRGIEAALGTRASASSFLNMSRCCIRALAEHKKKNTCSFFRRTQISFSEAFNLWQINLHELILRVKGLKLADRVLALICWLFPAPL

[2] = biological target: Atypical kinase COQ8A, mitochondrial (Homo sapiens, UniProt Q8NI60)
[3] = biological target: T2, Beta-adrenergic receptor kinase 1 (Homo sapiens, UniProt P25098)
T2 sequence (P25098 whole entry): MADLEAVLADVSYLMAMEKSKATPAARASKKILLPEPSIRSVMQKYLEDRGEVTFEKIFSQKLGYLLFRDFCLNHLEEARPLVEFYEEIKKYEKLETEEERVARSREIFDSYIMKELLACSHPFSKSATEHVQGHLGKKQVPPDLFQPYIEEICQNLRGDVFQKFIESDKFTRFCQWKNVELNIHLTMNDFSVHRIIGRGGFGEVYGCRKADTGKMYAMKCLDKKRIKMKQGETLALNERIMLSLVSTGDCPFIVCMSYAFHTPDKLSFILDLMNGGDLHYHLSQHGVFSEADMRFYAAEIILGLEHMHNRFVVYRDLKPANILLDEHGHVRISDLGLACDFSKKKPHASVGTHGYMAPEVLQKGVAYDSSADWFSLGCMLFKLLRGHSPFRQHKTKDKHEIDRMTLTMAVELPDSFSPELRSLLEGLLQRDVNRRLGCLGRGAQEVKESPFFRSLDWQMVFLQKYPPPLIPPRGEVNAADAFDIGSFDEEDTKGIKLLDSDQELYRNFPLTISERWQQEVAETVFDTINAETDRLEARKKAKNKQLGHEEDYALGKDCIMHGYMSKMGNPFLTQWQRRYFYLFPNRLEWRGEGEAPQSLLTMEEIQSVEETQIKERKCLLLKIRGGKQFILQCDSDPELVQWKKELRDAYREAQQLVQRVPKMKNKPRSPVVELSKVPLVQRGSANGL

[4] = biological target: T3, Breakpoint cluster region protein (Homo sapiens, UniProt P11274)
T3 sequence (P11274 whole entry): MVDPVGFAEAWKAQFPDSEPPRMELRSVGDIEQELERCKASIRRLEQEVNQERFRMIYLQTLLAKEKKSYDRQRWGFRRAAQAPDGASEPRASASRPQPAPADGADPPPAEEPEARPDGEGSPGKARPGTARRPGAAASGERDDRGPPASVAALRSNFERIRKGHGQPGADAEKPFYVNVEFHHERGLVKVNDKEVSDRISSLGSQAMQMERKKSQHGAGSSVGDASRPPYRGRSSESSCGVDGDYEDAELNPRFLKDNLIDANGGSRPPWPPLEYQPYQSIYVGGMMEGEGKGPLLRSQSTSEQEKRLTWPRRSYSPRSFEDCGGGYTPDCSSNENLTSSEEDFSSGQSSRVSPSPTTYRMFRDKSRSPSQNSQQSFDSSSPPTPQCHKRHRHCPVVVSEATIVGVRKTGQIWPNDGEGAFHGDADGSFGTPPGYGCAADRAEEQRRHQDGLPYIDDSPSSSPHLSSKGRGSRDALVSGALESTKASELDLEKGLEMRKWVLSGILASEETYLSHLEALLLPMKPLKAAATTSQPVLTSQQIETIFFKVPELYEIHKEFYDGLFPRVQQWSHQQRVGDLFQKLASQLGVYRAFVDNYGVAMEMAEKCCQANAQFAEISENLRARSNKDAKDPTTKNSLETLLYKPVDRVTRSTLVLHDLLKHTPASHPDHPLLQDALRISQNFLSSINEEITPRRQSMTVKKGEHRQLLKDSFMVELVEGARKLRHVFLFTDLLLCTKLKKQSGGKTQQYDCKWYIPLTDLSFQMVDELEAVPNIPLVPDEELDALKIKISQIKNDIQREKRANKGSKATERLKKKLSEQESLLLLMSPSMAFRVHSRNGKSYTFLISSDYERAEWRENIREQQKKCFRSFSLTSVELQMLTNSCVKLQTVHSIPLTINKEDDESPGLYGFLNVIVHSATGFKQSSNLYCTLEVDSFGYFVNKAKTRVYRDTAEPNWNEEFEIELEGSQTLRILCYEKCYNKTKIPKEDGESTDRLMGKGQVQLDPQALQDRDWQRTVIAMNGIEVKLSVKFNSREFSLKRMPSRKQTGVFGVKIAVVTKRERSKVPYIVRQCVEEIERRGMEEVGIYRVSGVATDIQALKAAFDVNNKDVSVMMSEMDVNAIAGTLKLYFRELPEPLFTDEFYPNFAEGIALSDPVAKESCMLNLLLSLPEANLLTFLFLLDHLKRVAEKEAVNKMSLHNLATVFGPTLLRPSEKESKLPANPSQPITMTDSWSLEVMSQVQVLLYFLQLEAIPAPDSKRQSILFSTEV

[5] = biological target: Platelet-derived growth factor receptor beta (Homo sapiens, UniProt P09619)
Pyridoxal kinase = biological target: T4, Pyridoxal kinase (Homo sapiens, UniProt O00764)
T4 sequence (O00764 whole entry): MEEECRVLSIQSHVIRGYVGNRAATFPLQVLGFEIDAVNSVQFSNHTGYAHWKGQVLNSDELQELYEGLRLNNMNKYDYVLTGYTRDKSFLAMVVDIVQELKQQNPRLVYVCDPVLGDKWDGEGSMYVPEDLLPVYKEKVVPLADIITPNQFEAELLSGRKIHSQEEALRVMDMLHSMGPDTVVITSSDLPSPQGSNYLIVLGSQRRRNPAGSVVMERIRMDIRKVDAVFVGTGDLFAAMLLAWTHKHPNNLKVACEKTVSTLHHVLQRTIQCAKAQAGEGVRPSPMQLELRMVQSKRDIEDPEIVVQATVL

[6] = biological target: 5'-AMP-activated protein kinase catalytic subunit alpha-1 (Homo sapiens, UniProt Q13131)
Note: in the data inactive means no Kd found up to 30 µM.

Platelet-derived growth factor receptor beta, sequence (P09619 whole entry): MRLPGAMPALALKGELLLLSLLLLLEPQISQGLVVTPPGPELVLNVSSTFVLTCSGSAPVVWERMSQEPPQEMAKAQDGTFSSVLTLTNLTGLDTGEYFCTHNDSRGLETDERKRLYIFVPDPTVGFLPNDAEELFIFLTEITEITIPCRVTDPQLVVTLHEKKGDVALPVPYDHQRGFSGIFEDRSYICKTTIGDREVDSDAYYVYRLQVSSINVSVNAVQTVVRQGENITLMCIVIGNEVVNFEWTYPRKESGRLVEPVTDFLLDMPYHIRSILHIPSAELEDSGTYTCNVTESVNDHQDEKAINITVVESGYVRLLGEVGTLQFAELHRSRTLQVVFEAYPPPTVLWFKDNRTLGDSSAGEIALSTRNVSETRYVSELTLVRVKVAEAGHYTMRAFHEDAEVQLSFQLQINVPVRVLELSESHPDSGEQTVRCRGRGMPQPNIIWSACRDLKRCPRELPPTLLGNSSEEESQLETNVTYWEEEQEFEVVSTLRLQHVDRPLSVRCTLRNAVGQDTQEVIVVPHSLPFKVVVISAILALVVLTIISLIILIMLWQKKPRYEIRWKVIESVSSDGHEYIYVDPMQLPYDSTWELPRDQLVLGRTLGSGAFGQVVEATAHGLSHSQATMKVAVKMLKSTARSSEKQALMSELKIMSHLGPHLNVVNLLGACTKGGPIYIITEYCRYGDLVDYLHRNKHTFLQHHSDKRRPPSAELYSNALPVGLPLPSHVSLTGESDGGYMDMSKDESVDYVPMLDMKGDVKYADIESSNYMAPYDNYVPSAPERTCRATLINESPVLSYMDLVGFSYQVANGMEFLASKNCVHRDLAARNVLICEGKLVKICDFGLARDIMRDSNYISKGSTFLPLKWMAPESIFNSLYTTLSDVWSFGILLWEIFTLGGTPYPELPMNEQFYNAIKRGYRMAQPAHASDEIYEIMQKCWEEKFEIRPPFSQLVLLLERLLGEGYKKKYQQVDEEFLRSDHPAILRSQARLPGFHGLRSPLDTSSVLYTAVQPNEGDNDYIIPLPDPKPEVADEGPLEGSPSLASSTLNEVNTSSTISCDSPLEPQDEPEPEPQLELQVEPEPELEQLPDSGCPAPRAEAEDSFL
Atypical kinase COQ8A, mitochondrial, sequence (Q8NI60 whole entry): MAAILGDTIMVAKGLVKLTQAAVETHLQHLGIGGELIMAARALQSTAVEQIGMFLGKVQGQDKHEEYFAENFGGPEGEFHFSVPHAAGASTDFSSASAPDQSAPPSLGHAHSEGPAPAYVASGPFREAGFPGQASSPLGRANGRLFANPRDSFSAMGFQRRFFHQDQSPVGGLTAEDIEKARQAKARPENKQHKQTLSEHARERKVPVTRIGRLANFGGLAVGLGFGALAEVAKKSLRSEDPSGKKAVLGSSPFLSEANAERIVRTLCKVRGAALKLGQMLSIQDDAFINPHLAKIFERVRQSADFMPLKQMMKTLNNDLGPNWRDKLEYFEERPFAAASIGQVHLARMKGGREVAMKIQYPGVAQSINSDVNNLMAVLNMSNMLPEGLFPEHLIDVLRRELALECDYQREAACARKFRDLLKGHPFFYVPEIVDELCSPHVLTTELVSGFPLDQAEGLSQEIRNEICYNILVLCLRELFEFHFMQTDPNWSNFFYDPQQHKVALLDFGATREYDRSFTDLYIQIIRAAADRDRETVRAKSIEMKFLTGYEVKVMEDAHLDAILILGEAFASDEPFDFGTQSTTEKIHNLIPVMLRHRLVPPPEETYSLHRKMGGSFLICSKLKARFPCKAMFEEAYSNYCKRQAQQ
5'-AMP-activated protein kinase catalytic subunit alpha-1, sequence (Q13131 whole entry): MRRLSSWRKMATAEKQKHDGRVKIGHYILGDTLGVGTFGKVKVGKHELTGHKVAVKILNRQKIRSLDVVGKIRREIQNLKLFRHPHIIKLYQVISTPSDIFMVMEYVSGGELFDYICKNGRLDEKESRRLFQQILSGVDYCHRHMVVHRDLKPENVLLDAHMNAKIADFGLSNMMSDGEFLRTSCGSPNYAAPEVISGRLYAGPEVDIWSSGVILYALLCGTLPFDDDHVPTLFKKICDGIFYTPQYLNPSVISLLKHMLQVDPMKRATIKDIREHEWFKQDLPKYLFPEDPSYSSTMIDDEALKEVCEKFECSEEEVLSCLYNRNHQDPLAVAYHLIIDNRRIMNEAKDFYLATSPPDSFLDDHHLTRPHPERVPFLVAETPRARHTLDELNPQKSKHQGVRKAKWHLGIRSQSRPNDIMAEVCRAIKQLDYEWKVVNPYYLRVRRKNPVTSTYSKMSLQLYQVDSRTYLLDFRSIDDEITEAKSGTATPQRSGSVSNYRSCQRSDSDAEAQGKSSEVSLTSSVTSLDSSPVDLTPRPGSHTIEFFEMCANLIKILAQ

Row | Compound | Kd [1] | Kd [2] | Kd [3] | Kd [4] | Kd [5] | Kd (Pyridoxal kinase) | Kd [6]
1 | COc1cc2ncnc(Nc3ccc(F)c(Cl)c3)c2cc1NC(=O)/C=C/CN1CCCCC1 [DACOMITINIB ANHYDROUS] | > 30 µM (inactive) | > 30 µM (inactive) | > 30 µM (inactive) | > 30 µM (inactive) | > 30 µM (inactive) | > 30 µM (inactive) | > 30 µM (inactive)
2 | C#Cc1cccc(Nc2ncnc3cc4c(cc23)OCCOCCOCCO4)c1 [ICOTINIB] | > 30 µM (inactive) | > 30 µM (inactive) | > 30 µM (inactive) | > 30 µM (inactive) | > 30 µM (inactive) | > 30 µM (inactive) | > 30 µM (inactive)
3 | Cc1c(Cn2c(C)nc3c(C(=O)O)cc(N4CCOCC4)cc32)cccc1C(F)(F)F [GSK-2636771] | > 30 µM (inactive) | > 30 µM (inactive) | > 30 µM (inactive) | > 30 µM (inactive) | > 30 µM (inactive) | > 30 µM (inactive) | > 30 µM (inactive)
4 | CNC(=O)c1cccc(-c2ccc3c(N4CCOC[C@@H]4C)nc(N4CCOC[C@@H]4C)nc3n2)c1 [VISTUSERTIB] | > 30 µM (inactive) | > 30 µM (inactive) | > 30 µM (inactive) | > 30 µM (inactive) | > 30 µM (inactive) | > 30 µM (inactive) | > 30 µM (inactive)
5 | NC[C@@](O)(c1ccc(Cl)cc1)c1ccc(-c2cn[nH]c2)cc1 [AT-13148] | > 30 µM (inactive) | > 30 µM (inactive) | 0.17 µM (active) | > 30 µM (inactive) | > 30 µM (inactive) | > 30 µM (inactive) | > 30 µM (inactive)
6 | COc1cc2nccc(Oc3ccc(NC(=O)C4(C(=O)Nc5ccc(F)cc5)CC4)cc3)c2cc1OC [CABOZANTINIB] | > 30 µM (inactive) | > 30 µM (inactive) | > 30 µM (inactive) | 0.342 µM (active) | > 30 µM (inactive) | > 30 µM (inactive) | > 30 µM (inactive)
7 | C=CCN(/C=C1/C(=O)O[C@H](COC)[C@@]2(C)C1=C(O)C(=O)C1=C2[C@H](OC(C)=O)C[C@]2(C)C(=O)CC[C@@H]12)CC=C [SONOLISIB] | > 30 µM (inactive) | > 30 µM (inactive) | > 30 µM (inactive) | > 30 µM (inactive) | > 30 µM (inactive) | > 30 µM (inactive) | > 30 µM (inactive)
8 | CCc1nc(C(N)=O)c(Nc2ccc(N3CCC(N4CCN(C)CC4)CC3)c(OC)c2)nc1NC1CCOCC1 [GILTERITINIB] | 0.152 µM (active) | > 30 µM (inactive) | > 30 µM (inactive) | > 30 µM (inactive) | 0.51 µM (active) | > 30 µM (inactive) | > 30 µM (inactive)
9 | COc1cc2ncnc(Nc3ccc(O)cc3)c2cc1OC [WHI-P131] | > 30 µM (inactive) | > 30 µM (inactive) | > 30 µM (inactive) | > 30 µM (inactive) | > 30 µM (inactive) | > 30 µM (inactive) | > 30 µM (inactive)
10 | O[C@H]1CC[C@H](Nc2ncc3nc(Nc4c(F)cc(F)cc4F)n([C@H]4CCOC4)c3n2)CC1 [TANZISERTIB] | > 30 µM (inactive) | > 30 µM (inactive) | > 30 µM (inactive) | > 30 µM (inactive) | > 30 µM (inactive) | > 30 µM (inactive) | > 30 µM (inactive)
11 | Cc1ccc(C(=O)Nc2ccc(Oc3cc4cnn(C)c4cc3-c3cn[nH]c3)c(F)c2)c(=O)n1-c1ccc(F)cc1 [MERESTINIB] | > 30 µM (inactive) | > 30 µM (inactive) | > 30 µM (inactive) | > 30 µM (inactive) | > 30 µM (inactive) | > 30 µM (inactive) | > 30 µM (inactive)
12 | Cn1cc(-c2[nH]c3cc(NC(=O)[C@H](N)C4CCCCC4)cc4c3c2C=NNC4=O)cn1 | 4.5 µM (active) | > 30 µM (inactive) | 3.56 µM (active) | 1.11 µM (active) | 0.1 µM (active) | > 30 µM (inactive) | 1.32 µM (active)

Next, values leading:

Row | Kd [1] | Kd [2] | Kd [3] | Kd [4] | Kd [5] | Kd (Pyridoxal kinase) | Kd [6] | Compound
13 | > 30 µM (inactive) | > 30 µM (inactive) | > 30 µM (inactive) | > 30 µM (inactive) | > 30 µM (inactive) | > 30 µM (inactive) | > 30 µM (inactive) | COc1ccc2c(OCc3nnc4ccc(-c5ccccc5)nn34)ccnc2c1 [AMG-208]
14 | > 30 µM (inactive) | > 30 µM (inactive) | > 30 µM (inactive) | > 30 µM (inactive) | > 30 µM (inactive) | > 30 µM (inactive) | > 30 µM (inactive) | CC(C)(O)CC(=O)NCCn1ccc2ncnc(Nc3ccc(Oc4cccc(C(F)(F)F)c4)c(Cl)c3)c21 [TAK-285]
15 | > 30 µM (inactive) | > 30 µM (inactive) | > 30 µM (inactive) | > 30 µM (inactive) | > 30 µM (inactive) | > 30 µM (inactive) | > 30 µM (inactive) | COc1cc2ncnc3c2cc1OCCCCCN(C)Cc1ccc(Br)cc1N3 [JNJ-26483327]
16 | > 30 µM (inactive) | > 30 µM (inactive) | > 30 µM (inactive) | > 30 µM (inactive) | > 30 µM (inactive) | > 30 µM (inactive) | > 30 µM (inactive) | Cn1c(=O)c(F)c(Nc2ccc(I)cc2F)c2c(=O)n(C[C@@H](O)CO)cnc21 [TAK-733]
17 | > 30 µM (inactive) | > 30 µM (inactive) | > 30 µM (inactive) | > 30 µM (inactive) | > 30 µM (inactive) | > 30 µM (inactive) | > 30 µM (inactive) | COc1cccc(Nc2ncnn3ccc(CN4CC[C@@H](N)[C@H](O)C4)c23)c1 [BMS-690514]
